Assay results taken from patent US20140356468A1, “COMPOSITION CONTAINING PAPER MULBERRY EXTRACTS” (AMOREPACIFIC CORPORATION, priority 2010, published 2014).

Experiments:
[1] = system: differentiated 3T3-L1 adipocytes; experiment: Stimulation of decomposition of triglyceride in adipocytes (GPO-trinder kit); format: cell-based, mouse; settings: control = 100%; caffeine 50 μM
Protocol: Mouse fibroblast 3T3-L1 cells were seeded into a 6-well culture plate containing 10% fetal bovine serum (FBS)-containing DMEM (Dulbeco's modified eagle's medium, GIBCO BRL, Life Technologes) at a density of 1×10^5 cells/well. After 2 days, the medium was replaced with fresh DMEM (containing 10% FBS), followed by culture for 2 days. Then, the cultured cells were treated with DMEM (containing 10% FBS) containing 1 μg/ml insulin, 0.5 mM IBMX and 0.25 μM dexamethasone to induce differentiation, and after 2 days, the medium was replaced with insulin-containing DMEM, followed by incubation for 5 days. After 5 days, the medium was replaced with normal medium (DMEM containing 10% FBS), and the cells were incubated until the cells morphologically differentiated into adipocytes. In order to evaluate the effect of the paper mulberry extract on the stimulation of decomposition of triglyceride in adipocytes, a test was carried out using the differentiated […] adipocytes. The 3T3-L1 adipocytes were washed twice with PBS (phosphate buffered saline), and colorless DMEM containing 0.5% fatty acid-free bovine serum albumin (BSA) was added to the cells, and a fraction of the cells was taken and used in the test. As a control, a medium not treated with the test material or the positive control was used. […] (Sigma, St. Louis, Mo., U.S.A.), and the absorbance at 540 nm was measured using an ELISA reader.

[2] = system: differentiated 3T3-L1 adipocytes; experiment: Inhibition of lipogenesis (Sudan III staining of adipocytes); format: cell-based, mouse; design: key: expressed as +++, ++ and + depending on the degree of staining; expressed as +++, ++ and + depending on the degree of staining; expressed as +++, ++ and + depending on the degree of staining; settings: Sudan III staining grade; positive control 50 μM caffeine
Protocol: Mouse fibroblast 3T3-L1 cells were seeded into a 6-well culture plate containing 10% fetal bovine serum (FBS)-containing DMEM (Dulbeco's modified eagle's medium (GIBCO BRL, Life Technologes) at a density of 1×10^5 cells/well. After 2 days, the medium was replaced with fresh DMEM (containing 10% FBS), followed by culture for 2 days. Then, the cultured cells were treated with DMEM (containing 10% FBS) containing 1 μg/ml insulin, 0.5 mM IBMX and 0.25 μM dexamethasone to induce differentiation, and after 2 days, the medium was replaced with insulin-containing DMEM, followed by incubation for 5 days. After 5 days, the medium was replaced with normal medium (DMEM containing 10% FBS), and the cells were incubated until the cells morphologically differentiated into adipocytes. In order to measure the effect of the paper mulberry extract on the inhibition of the accumulation of fat in adipocytes, the differentiated 3T3-L1 adipocytes were subjected to Sudan III staining ([…], Sigma-Aldrich). The adipocytes were fixed with 4% paraformaldehyde (pH 7.2) in phosphate buffer at room temperature, and then washed with PBS (phosphate buffered saline), after which the cells were stained with Sudan III and photographed for visual comparison. […] The degree of inhibition of fat accumulation was expressed as +++, ++ and + depending on the degree of staining.

elastase type III = target: T1, elastase type III (Sus scrofa, UniProt P00772); experiment: Inhibition of elastase activity; format: biochemical; settings: elastase test; extract 10 mg/L, EGCG 250 μM; untreated negative control = 100
T1 construct: purchased Sigma Aldrich E0127
Protocol: The elastase inhibitory activity of the paper mulberry extract prepared in Preparation Example 1 was measured in comparison with that of EGCG. The elastase and substrate used were commercially purchased from Sigma Aldrich (Cat. No. E0127, USA). The elastase inhibitory activity was measured in the following manner. […] Then, 100 μL of 0.4514 mg/mL N-SUCCINYL-[…]-NITROANILIDE in the same buffer used above was added to the plate and allowed to react at 25° C. for 15 minutes. After completion of the reaction, the absorbance at 415 nm was measured. For correction, a blank test was carried out in the same manner. The elastase inhibitory activity was calculated using the following equation. Elastase activity inhibition(%)={1-(C-D)/(A-B)}×100 wherein A: absorbance at 415 nm in the case in which the test sample was not added and the enzyme was added; B: absorbance at 415 nm in the case in which the test sample was not added and the enzyme was not added; C: absorbance at 415 nm in the case in which the test sample was added and the enzyme was added; and D: absorbance at 415 nm in the case in which the test sample was added and the enzyme was not added.

[3] = system: Leukoplakia mice (C57bl/6-Mitf^mi-vit); experiment: Gray hair prevention and black hair induction in leukoplakia mice (melanin in hair); format: in vivo; settings: topical twice a day, about 3 weeks; extract 2.5%, IBMX 50 mM in vehicle
Protocol: Leukoplakia mice (C57bl/6-Mitf^mi-vit) were purchased from The Jackson Lab (USA) and used. The effect of the paper mulberry extract on gray hair prevention in the mice was tested in the following manner. The back of 12-week-old mice was depilated such that the depilated area was the same between the mice. From the day following the depilation day, gray hair-preventing substances were applied to the depilated area twice a day. As a vehicle for the gray hair-preventing substance, a mixture of EtOH:1,3-BG:DW=3:2:5 (volume ratio) was used. […] After about 3 weeks, the difference in gray hair prevention effect between the materials has been distinguished, newly grown hairs were collected and the amount of melanin in the hairs was measured using esperase (Novozyme). […] The reaction solution thus obtained was added to a 96-well plate, and the absorbance at 405 nm was measured, thereby measuring the amount of melanin in the reaction solution. As described above, the leukoplakia mouse model in which the occurrence of gray hair was stimulated was treated with each of the negative control, the positive control and the test sample, and the effects of the negative control, the positive control and the test sample were measured visually and by measuring the amount of melanin in the hair.

[4] = system: MITF expression in Melan-a melanocyte cell line MITF-GLuc; experiment: Stimulation of MITF expression in transformed melanocytes (GLuc reporter); format: cell-based; settings: 100 μM, 3 days
Source text: To examine the gray preventing effect of the paper mulberry extract, the effect of the paper mulberry extract on the stimulation of MITF expression was examined as disclosed in Korean Patent Application No. 10-2007-0072182 (entitled “A method for screening a gray hair-preventing substance using a transformed cell line and leukoplakia mice and a composition for preventing gray hair containing the gray hair-preventing substance”). The Melan-a melanocyte cell line MITF-GLuc (accession number: KCLRF-BP-00162) transformed with the expression vector pMITF-GLuc was cultured in RPMI 1640 medium containing 10% fetal bovine serum (FBS), 100 unit/ml penicillin-streptomycin (Gibco), 0.1 μM TPA (Sigma) and 400 μg/ml G418 under the conditions of 37° C. and 10% CO2. The positive control IBMX was purchased from Sigma and used at a concentration of 100 μM. […] After the incubation, to quantify the amount of GLuc, a small amount of the medium was taken, transferred to a measurement plate and allowed to react with a substrate. Specifically, a small amount of the medium was taken from the cell culture dish and transferred to a measurement plate, after which 1× GLuc assay working solution (NEB) was added to the medium at a ratio of 4:1, and the amount of light emitted at […] was measured using a luminometer.

Collagenase (MMP-1) = Collagenase (MMP-1) production in human fibroblasts (ELISA); format: cell-based; settings: extract 10 μg/ml, 24 hours; control = 100
Protocol: The collagenase production inhibitory ability of the paper mulberry extract prepared in Preparation Example 1 was measured in comparison with that of retinoic acid.
Human fibroblasts were added to a 96-well microtiter plate containing 2.5% fetal bovine serum-containing DMEM (Dulbecco's Modified Eagle's Media) at a density of 5,000 cells/well and were cultured in a 5% CO2 incubate at 37° C. to a confluence of about 70-80%. Then, the cell culture was treated with 10 μg/ml of the paper mulberry extract of Preparation Example 1 for 24 hours and collected.
The production of collagenase in the collected cell culture was measured using a commercially available collagenase measurement instrument (Catalog #: RPN 2610, Amersham Pharmacia, USA). […]
The absorbance of the yellowish 96-well plate at 405 nm was measured using a spectrophotometer, and based on the measurements, the degree of synthesis of collagenase was calculated using the following equation 1. Herein, the absorbance of a cell culture collected from a group not treated with the test sample was used as a control.
Collagenase expression(%)=(absorbance of cell group treated with material/absorbance of control)×100 Equation 1

[5] = system: prostaglandin production in macrophages; experiment: Inhibition of prostaglandin production in LPS-treated macrophages (ELISA); format: cell-based, mice; settings: percentage relative to 100% for the difference between LPS-treated and non-LPS-treated group
Protocol: Anti-inflammatory effect was evaluated based on the inhibition of prostaglandin production. The anti-inflammatory effect of the paper mulberry extract of Preparation Example 1 was measured using macrophages. […] Then, 100 μl of the cell suspension was added to each well of a 96-well plate and cultured in a 5% CO2 incubator at 37° C. for 2 hours so that the macrophages were attached to the plate surface. Then, the attached macrophages were washed three times with PBS and used to test the effect of the extract. The cultured macrophages were added to 1%(w/v) LPS-containing RPMI medium at a concentration of 5×10^4 cells/ml and cultured for 12 hours to induce the production of prostaglandin, after which they were treated with 100 μl of the extract. Released prostaglandin was quantitatively analyzed by ELISA. Herein, the prostaglandin production inhibitory activity of the extract was expressed as the percentage of prostaglandin production in the group treated with LPS together with the sample relative to 100% for the difference in prostaglandin production between the LPS-treated group and the non-LPS-treated group.

[6] = target: T2, 5α-reductase in HEK293-5αR2 cells (Homo sapiens, UniProt P31213); experiment: Inhibition of 5α-reductase (testosterone to dihydrotestosterone conversion); format: cell-based; settings: radioactivity in the DHT region/total radioactivity; extract 10 μg/ml, 2 hours
T2 construct: 3×FLAG; expressed in transfected cells; host or cells: HEK293
T2 sequence (P31213 1-254): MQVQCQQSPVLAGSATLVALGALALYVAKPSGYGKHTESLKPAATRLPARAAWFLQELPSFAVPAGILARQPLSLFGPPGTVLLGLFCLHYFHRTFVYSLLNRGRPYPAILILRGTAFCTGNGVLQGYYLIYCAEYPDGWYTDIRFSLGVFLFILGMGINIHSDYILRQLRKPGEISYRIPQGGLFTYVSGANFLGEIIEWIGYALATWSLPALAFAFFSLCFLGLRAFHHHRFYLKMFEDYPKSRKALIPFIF
Protocol: In order to examine the effect of inhibiting 5α-reductase activity, the ratio of [^14C]testosterone-to-[14^C]dihydrotestosteron conversion in HEK293-5αR2 cells was measured. HEK293 cells transfected with p3×FLAG-CMV-5αR2 were added to a 24-well plate at a density of 2.5×10^5 cells/well and cultured (Park et al., 2003, JDS. Vol. 31, ppl 91-98). The next day, the medium was replaced with fresh medium containing an enzyme substrate and an inhibitor. As the substrate of the medium, 0.05 μCi [^14C]testosterone (Amersham Pharmacia biotech, UK) was used. In order to measure the degree of inhibition, 10 μg/ml of the paper mulberry extract of Preparation Example 2 was added to the cells which were then incubated in a 5% CO2 incubator at 37° C. for 2 hours. As a positive control, finasteride was used. The culture medium was collected and, steroid was extracted with 800 μl of ethyl acetate. […]
The plastic sample was dried in air, and the amount of isotopes was measured using a Vas system. Specifically, the dried plastic sheet together with an X-ray film was placed in a Vas cassette, and after 1 week, the amounts of the testosterone and dihydrotestosterone isotopes were measured.

T1 sequence (P00772 27-266): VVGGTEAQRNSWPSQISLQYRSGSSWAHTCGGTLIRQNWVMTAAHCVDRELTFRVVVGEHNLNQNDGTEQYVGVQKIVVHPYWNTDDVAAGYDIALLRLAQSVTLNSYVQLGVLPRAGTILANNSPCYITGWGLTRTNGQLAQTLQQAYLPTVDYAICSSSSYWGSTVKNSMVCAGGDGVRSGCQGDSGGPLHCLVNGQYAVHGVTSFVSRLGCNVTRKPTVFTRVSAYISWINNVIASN

## Cn1c(=O)c2c(ncn2C)n(C)c1=O [Caffeine, caffeine]
[1]
  Level of released glycerol: 115%
[2]
  Inhibition (%): +

## O=C(O[C@@H]1Cc2c(O)cc(O)cc2O[C@@H]1c1cc(O)c(O)c(O)c1)c1cc(O)c(O)c(O)c1 [EGCG]
Elastase type III
  Expression (%): 90 ± 1.2%

## CC(C)Cn1c(=O)n(C)c(=O)c2[nH]cnc21 [IBMX]
[3]
  Ratio (%) of amount of melanin in hair relative to negative control: 105.9%
[4]
  Percentage (%) of gluciferase production relative to negative control: 180%

## CC1=C(/C=C/C(C)=C/C=C/C(C)=C/C(=O)O)C(C)(C)CCC1 [Retinoic acid, retinoic acid]
Collagenase (MMP-1)
  Expression (%) (collagenase): 75 ± 3.4%

## CC(=O)Oc1ccccc1C(=O)O [aspirin]
[5]
  Prostaglandin production (inhibitory effect on prostaglandin production): 25.0%

## CC(C)(C)NC(=O)[C@H]1CC[C@H]2[C@@H]3CC[C@H]4NC(=O)C=C[C@]4(C)[C@H]3CC[C@]12C [finasteride]
[6]
  Conversion (%): 27.6%
